Data as given in US7244446B2, “Method for providing long-lasting pain diminishment through topical or intranasal administration of civamide” (Winston Laboratories, Inc., priority 2003, dated 2007).

Legend:
[1] = test system: patients with episodic cluster headache; assay: Episodic cluster headache patients, 0.01% civamide metered nasal spray twice daily for seven days, six-week follow-up; format: in vivo, human; conditions: 0.01% civamide in aqueous vehicle, 7 days
Protocol: Patients with episodic cluster headache were treated with 0.01% civamide in an aqueous vehicle delivered by metered nasal spray twice daily for seven days. The patients were then followed for an additional six weeks after treatment.

[2] = test system: patients with episodic cluster headaches; assay: Episodic cluster headache patients, 0.025% civamide intranasally once daily for seven days, three-week follow-up; format: in vivo, human; conditions: 0.1 ml of 0.025% civamide in aqueous vehicle, each nostril, 7 days
Protocol: Patients with episodic cluster headaches were treated with 0.1 ml of 0.025% civamide in an aqueous vehicle given once daily intranasally to each nostril for seven days. Following completion of the seven-day treatment period, cluster headache patients were followed for another three weeks during which they received no treatment.

[3] = test system: patients with long-standing painful osteoarthritis of the knees; assay: Painful osteoarthritis of the knees, 0.075% civamide cream three times daily for two to four weeks, then discontinued; format: in vivo, human; conditions: 0.075% civamide in cream vehicle, topical
Description: Patients with long-standing painful osteoarthritis of the knees applied 0.075% civamide in a cream vehicle three times daily for two to four weeks, and then the medication was discontinued. Relief of painful osteoarthritis continued for as long as 2–4 months after discontinuing the medication.

[4] = test system: painful, inflammatory or allergic disorders; conditions: compositions containing civamide; from U.S. Pat. No. 5,063,060; cited from earlier work

## COc1cc(CNC(=O)CCCC/C=C\C(C)C)ccc1O [civamide, cis-8-methyl-N-vanillyl-6-nonenamide]
[1]; six weeks follow-up
  Frequency of cluster headache over follow-up: declined continuously over the six-week period
[1]; week six after treatment
  Reduction in headaches during week six: ~65%
[2]; three weeks after completion
  Headache frequency three weeks after treatment versus during or immediately after treatment: lower three weeks following completion of treatment than during or immediately after the treatment period
[2]; three weeks follow-up without treatment
  Frequency of cluster headaches after completion of treatment: decreased continuously over the three weeks following completion of the short course (7 days) of treatment
[3]
  Duration of relief of painful osteoarthritis after discontinuing the medication: 2–4 months
[4]
  Efficacy compared with compositions containing capsaicin: comparable in efficacy to compositions containing capsaicin
  Local adverse effects compared with capsaicin: significantly less local adverse effects normally associated with capsaicin
